Columns and labels:
[1] = test system: tgfb3 mRNA; experiment: tgfb3 mRNA level by quantitative PCR in human aortic vascular smooth muscle cells; assay type: cell-based; details: 24 hrs, normalised to TBP, vs vehicle
Experimental: (1995) Cardiovasc. Res. 29:848-55). […] The cells were then incubated for either 24 hrs or 72 hrs depending on the experiment. All treatment conditions were established in triplicate. The level of mRNA for tgfb1, tgfb2 and tgfb3 were estimated by quantitative PCR. The media was removed and RNA was carefully prepared using the Ambion RNAqueous4PCR kit (Ambion#1914) in accordance with the manufacturer's instructions. The purity of the RNA and the quantity was assessed spectrophotometrically. […] This analysis results in both a gel-like image as well as electrophoretic data. Indications of RNA degradation are: (a) decreasing ratio of ribosomal bands (b) additional peaks bellow the ribosomal bands (c) Decrease in overall RNA signal (d) shift towards shorter fragments. […] Next, the RNA was converted to cDNA using the ABI High-Capacity cDNA Archive Kit, in accordance with manufacturer's instructions. The qPCR assay was then set up as follow: all cDNA samples were diluted to 180 μl total volume using Molecular grade water. Samples were vortexed to ensure thorough mixing. cDNA was aliquoted into ABI 384 well plates using a multi-channel pipette, 4.5 μl of sample into each well. Samples were assayed in triplicate (that is, nine determinations in total were made for each condition, being three separate assays on each of three replicate culture wells). The assay mix and Universal Master Mix were prepared and aliquoted across the 384 well plates 5.5 μl in each well, using a single channel pipette. The final composition of each reaction (10 μl) being: Primer/Probe assay mix (×20)=0.5 μl; Universal Master Mix=5 μl; cDNA=4.5 μl. The plates were then heat sealed using Abgene clear seal strong plastic heat seals, and then cycled and scanned using the […] under the following conditions: 95° C. for 10 minutes to activate the AmpliTaq GOLD, then 40 cycles of: 95° C. for 15 Sec (Denaturation), 60° C. for 60 […]). […] Quantitative PCR was performed using several primer/probe sets. […] We used both commercially available primer/probe sets (ABI Taqman pre-validated assays), using both available sets in the ABI database for tgfb1 and tgfb2, as well as the single available set for tgfb3. In addition, we used our own manual design probe/primer set for each of tgfb1, tgfb2 and tgfb3. […] In all quantitative PCR experiments, several additional controls were included: firstly, a control for each sample is run with no reverse transcription to ensure the mRNA sample is not contaminated with genomic DNA (although the manual design probe/primer sets were all selected to cross an exon/exon boundary, ensuring no detectable amplicon is produced from genomic DNA templates). Secondly, a control reaction is run using serial 2-fold dilutions of a standard cDNA preparation (prepared from commercially available IMAGE clones). […] Failure of either control led to the repeat of the entire experiment.

[2] = test system: apoE-deficient mice; experiment: vascular lipid lesion formation at the aortic root (Oil Red O) in apoE-deficient mice; assay type: in vivo, mouse; details: 12 weeks in chow, TMX 1 mg/kg/day, Aspirin 30 mg/kg/day, mean ± SD, n = 8
Source text: Adult male apoE-deficient mice, back-crossed onto a C57B16 background for at least five generations, were randomised into groups of eight animals at 12 weeks of age, such that each group had similar average body weight. […] Note that the mice receiving both compounds received food pellets into which a homogenous mixture of the ingredients had been compounded, and not a mixture of food pellets each containing one of the two active ingredients. The amount of food eaten and the body weight of each mouse was monitored daily for the first week, and once per week thereafter. After 12 weeks of treatment, the mice were sacrificed by CO2 asphyxiation, and heart & lung blocks were excised, embedded in Cryo-M-bed (Bright Instruments, UK) without fixation and snap frozen in liquid nitrogen.
Sections were then prepared from the aortic root according to the Paigen Strategy (a defined sequence of cutting sections which allow reproducible comparison between animals; see for example Grainger et al. (1995) Nature Med. 1:1067-72 and the references therein). 4 μm crysosections were cut using a motordriven cryotome (Bright Instruments) and collected onto poly-L-lysine coated glass microscope slides, then fixed in ice-cold acetone for 90 secs, allowed to air dry and stored at −20° C. until analysed.
The extent of vascular lipid lesion formation was assessed by Oil Red O staining, with a Fast Green counterstain, a standard histological procedure well known in the art. Briefly, five sections (selected according to the Paigen strategy) from each animal were passed through graded alcohol solutions, then stained in Oil Red O for 12 minutes, washed several times and then counterstained by dipping in Fast Green for 5-10 secs, and then dip washed in several changes of clean water. After air drying, an appropriate mountant was applied (simple glycerol-based moutants are most appropriate for this task), followed by a coverslip using acrylic varnish surrounding the coverslip to hold it in place. Slides were then analysed using a simple inverted microscope (no phase contrast; 10× objective; Olympus AX series), fitted with a digital camera to capture images of the entire aortic wall. The images were subsequently processed, blind to the treatment status of the animal, using Openlab image analysis software (Improvision, UK) running on an Apple Macintosh computer. […]
Mice were sacrificed and heart & lung blocks prepared and processed exactly as described in Example 2. […] The extent of lipid lesion formation was assessed by Oil Red O staining with Fast Green counterstain, exactly as in example 2.

[3] = test system: anti-carbohydrate antibodies; experiment: anti-carbohydrate antibody isotypes by direct ELISA in serum of men with coronary artery disease; assay type: in vivo, human; details: 3 months, Tamoxifen 20 mg once daily, aspirin 75 mg once daily, mean ± SD
Experimental: (§1) Patients continued with all other medications (statins, ACE inhibitors, beta blockers, calcium channel blockers, diuretics etc), but no patients were taking warfarin or tirofiban.
The level of anti-carbohydrate antibodies was measured by direct ELISA as previously described (Mosedale et al (2006) J. Immunol. Meth. 309:182-91). […] After a final 3 washes in PBS/Tween and single wash in PBS, 200 μl of K-blue chromogenic substrate was added to each well.
as §1
The level of anti-carbohydrate antibodies was then measured by direct ELISA using the procedure given in Example 5

Structure (SMILES)	Level of tgfb3 mRNA, estimated by qPCR ([1]; 10 μM A) [fold-change]	Level of tgfb3 mRNA, estimated by qPCR ([1]; 33 μM A) [fold-change]	Level of tgfb3 mRNA, estimated by qPCR ([1]; 100 μM A) [fold-change]	Total intimal area [2]	Level of tgfb3 mRNA, estimated by qPCR ([1]; 3.3 μM T) [fold-change]	Level of tgfb3 mRNA, estimated by qPCR ([1]; 10 μM T) [fold-change]	Level of tgfb3 mRNA, estimated by qPCR ([1]; 33 μM T) [fold-change]	IgG2 titre, change versus baseline [3]	IgG2 Absorbance, change versus baseline ([3]; neat serum)	Intimal lipid lesion area [2]	Lipid lesion area [2]
CC(=O)Oc1ccccc1C(=O)O [Aspirin, acetylsalicylic acid]	1.09 ± 0.08	1.06 ± 0.13	0.94 ± 0.09	65,209 ± 6,712 μm2							
CC/C(=C(\c1ccccc1)c1ccc(OCCN(C)C)cc1)c1ccccc1 [Tamoxifen]				64,428 ± 4,294 μm2	0.92 ± 0.16	1.19 ± 0.21	1.31 ± 0.11	+176% ± 43%	+0.61 ± 0.17	9,393 ± 2,221 μm2	10,794 ± 2,820 μm2
